# In patent US20210338782A1, “STORAGE STABLE SOMATOSTATIN-DOPAMINE CHIMERIC COMPOUNDS AND SALT FORMS THEREOF” (Cydan II, Inc., priority 2019, published 2021):
# Structures can show the parent of a compound that is named as a salt.
# Experiments:
# Type in all cases: physicochemical
# [1] = Solid state (thermolytic) stability of TBR-760 salt forms, open container, UPLC peak purity and appearance
# Experimental: Each TBR-760 salt was further evaluated for thermolytic stability over time by setting up three different exposure conditions (25° C. at 60% relative humidity (RH); 40° C. at 75% RH; or 60° C. with open and closed container systems (open dish/closed dish). Approximately 50 mg of each salt form was weighed in a nitrogen-flushed glove box for use in the studies. All samples were stored at −20° C. in a good laboratory practice (GLP) freezer both before and after exposure to the indicated conditions.
# The stability of each salt form was assessed by monitoring the post-exposure drug peak purity and by evaluating the post-exposure visual appearance of the salt. The samples were removed from the exposure conditions and allowed to equilibrate to ambient conditions for 15-20 mins. An appropriate amount of each sample was weighed for analysis and dissolved in diluent (deionized water containing 0.1% TFA) to obtain a stock concentration of 1 mg/mL. The stock solution was then diluted to 0.125 mg/mL in an HPLC vial using diluent and the samples were run on a Waters Acquity UPLC system using the parameters shown in Table 4.
# [2] = Thermogravimetric analysis (TGA) of TBR-760 salt forms; conditions: ramp 5.0° C. per minute from 25 to 400° C.; listed as mesylate salt
# Experimental: Thermogravimetric analyses (TGA) were performed on all TBR-760 salt forms to evaluate thermal stability of each salt form. Studies were performed using a TGA-Q500 thermogravimetric analyzer (TA Instruments). The weight of each compound was measured while the temperature was increased at a ramp rate of 5.0° C. per minute from 25 to 400° C. […] The weight loss may be indicative of loss of adsorbed moisture, entrained solvent or volatile impurities. Decomposition of the compound appears to start at about 234° C. (sulfate salt), 245° C. (chloride salt), 252° C. (tosylate salt), and 255° C. (mesylate salt). For the acetate salt, a further ˜5% loss of weight between 110° C. and 200° C. was observed, indicating loss of volatile acetate ions over that temperature range (FIG. 8).
# [3] = Photostability of TBR-760 salt forms (ICH Q1B, visible and UV light), appearance and UPLC purity
# From the text: In order to evaluate the light sensitivity and stability of TBR-760 chimeric peptide salts, all five salt forms were exposed to ultraviolet (UV) and visible light according to International Council for Harmonisation of Technical Requirements for Pharmaceuticals for Human Use (ICH) guideline Q1B for photostability testing. In brief, a Caron 6540-1 photostability chamber unit with separate UV and light chambers was used for the studies. Visible light exposure was 1.2 million lux hours and UV exposure was 200 watt hours/square meter.
# Samples were placed in clear, sealed vials and stored in the appropriate chamber alongside dark controls in amber colored vials wrapped in aluminum foil. Control samples were stored in sealed amber vials at −20° C. The appearance of exposed samples was examined visually before being analyzed via UPLC.
# [4] = 25° C. at 60% RH, open container
# [5] = 40° C. at 75% RH, open container
# [6] = UPLC peak purity, 25° C. at 60% RH, open container
# [7] = UPLC peak purity, 40° C. at 75% RH, open container
# [8] = UPLC peak purity, 60° C., open dish
smiles,measurement,setting,value
"CCCN1C[C@H](CSCC(=O)NCCCC[C@@H](NC(=O)CSC[C@@H]2C[C@@H]3c4cccc5[nH]cc(c45)C[C@H]3N(CCC)C2)C(=O)N[C@H]2CSSC[C@@H](C(=O)N[C@H](C(N)=O)[C@@H](C)O)NC(=O)[C@H](CC)NC(=O)[C@H](CCCCN)NC(=O)[C@@H](Cc3c[nH]c4ccccc34)NC(=O)[C@H](Cc3ccc(O)cc3)NC2=O)C[C@@H]2c3cccc4[nH]cc(c34)C[C@H]21 [TBR-760 mesylate, Dop2-D-Lys(Dop2)-cyclo[Cys-Tyr-D-Trp-Lys-Abu-Cys]-Thr-NH2]","Appearance, T = 2 wk",[1]; [4],White
same,"Appearance, T = 4 wk",[1]; [4],White
same,"Appearance, T = 3 d",[1]; [4],White
same,stability compared with the other salt forms,"[1]; 40° C. at 75% RH and 60° C., 2 and 4 weeks",significantly more stable
same,"Appearance, T = 2 wk",[1]; [5],White
same,"Appearance, T = 4 wk",[1]; [5],White
same,"Appearance, T = 3 d",[1]; [5],White
same,"Appearance, T = 2 wk","[1]; 60° C., open dish",White
same,"Appearance, T = 4 wk","[1]; 60° C., open dish",White
same,"Appearance, T = 3 d","[1]; 60° C., open dish",White
same,"Purity, T = 2 wk",[1]; [6],98.14
same,"Purity, T = 4 wk",[1]; [6],97.77
same,"Purity, T = 2 wk",[1]; [7],97.49
same,"Purity, T = 4 wk",[1]; [7],97.35
same,"Purity, T = 2 wk",[1]; [8],97.56
same,"Purity, T = 4 wk",[1]; [8],97.17
same,"Purity, Control","[1]; UPLC peak purity, control, stored at -20° C.",98.39
same,"Appearance, Control","[1]; control, stored at -20° C.",White
same,TGA start of decomposition,[2],~255 °C
same,"Purity, UV-exposed","[3]; UPLC, UV 200 watt hours/square meter, clear sealed vial",96.67
same,"Purity, Control","[3]; UPLC, control in sealed amber vial at -20° C.",98.39
same,"Purity, Dark Ctrl-UV","[3]; UPLC, dark control in UV chamber",98.35
same,"Purity, Dark Crtl-Light","[3]; UPLC, dark control in visible light chamber",98.46
same,"Purity, Light-exposed","[3]; UPLC, visible light 1.2 million lux hours, clear sealed vial",95.3
same,"Appearance, UV-exposed","[3]; UV 200 watt hours/square meter, clear sealed vial, listed as Mesylate",off-white
same,"Appearance, UV-exposed","[3]; UV 200 watt hours/square meter, clear sealed vial, listed as mesylate",white to off-white
same,"Appearance, Control",[3]; control in sealed amber vial at -20° C.,white
same,"Appearance, Dark Ctrl-UV","[3]; dark control in UV chamber, amber vial wrapped in aluminum foil",white
same,"Appearance, Dark Crtl-Light","[3]; dark control in visible light chamber, amber vial wrapped in aluminum foil",white
same,"degradation upon exposure to visible or UV light, in words","[3]; visible and UV light, UPLC",more resistant to degradation than TBR-760 acetate
same,"Appearance, Light-exposed","[3]; visible light 1.2 million lux hours, clear sealed vial, listed as Mesylate",off-white
same,"Appearance, Light-exposed","[3]; visible light 1.2 million lux hours, clear sealed vial, listed as mesylate",white to off-white
